Measured values: US20250375445A1, “METHODS OF TREATING A RAS PROTEIN-RELATED DISEASE OR DISORDER” (Revolution Medicines, Inc., priority 2024, published 2025)

Columns and labels:
[1] = test system: KRAS MUT (G12C, G12D, G12V); assay: RAS-RAF Disruption, KRAS MUT; format: biochemical
KRAS WT [2] = biological target: T1, KRAS WT (Homo sapiens, UniProt P01116+P62937); assay: RAS-RAF Disruption, KRAS WT; format: biochemical
[3] = test system: NRAS MUT (Q61H, Q61K, Q61L, Q61R); assay: RAS-RAF Disruption, NRAS MUT; format: biochemical
NRAS WT = NRAS WT (Homo sapiens, UniProt P01111+P62937); assay: RAS-RAF Disruption, NRAS WT; format: biochemical
NRAS WT, sequence (P01111 whole entry): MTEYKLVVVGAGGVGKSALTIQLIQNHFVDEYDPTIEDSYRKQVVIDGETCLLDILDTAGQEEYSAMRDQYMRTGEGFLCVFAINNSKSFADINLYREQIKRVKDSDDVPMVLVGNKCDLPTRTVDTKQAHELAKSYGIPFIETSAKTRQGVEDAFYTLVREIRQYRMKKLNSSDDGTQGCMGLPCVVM
NRAS WT, sequence (P62937 whole entry): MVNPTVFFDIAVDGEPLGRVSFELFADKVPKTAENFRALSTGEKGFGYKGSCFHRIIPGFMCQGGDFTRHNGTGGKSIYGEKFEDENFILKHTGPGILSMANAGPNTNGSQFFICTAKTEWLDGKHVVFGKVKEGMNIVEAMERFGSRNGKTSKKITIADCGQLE

CypA = CypA (Homo sapiens, UniProt P62937); assay: CypA Binding (KD1)
CypA, sequence (P62937 whole entry): as above
Excerpt: The KD1 value of a RAS(ON) multi-selective inhibitor can be determined using methods standard in the art, including but not limited to surface plasmon resonance (SPR), Fluorescence Polarization (FP), or isothermal titration calorimetry (ITC). In a non-limiting example, the binding affinity of compounds for CypA can be assessed by SPR using, for example, a Biacore 8K instrument. CypA is immobilized on a sensor chip (e.g., a streptavidin chip), and varying RAS(ON) multi-selective inhibitor compound concentrations can be flowed over the chip in assay buffer. […] In a specific embodiment, the KD1 of a RAS(ON) multi-selective inhibitor is determined using SPR.
The binding affinity of RAS(ON) multi-selective inhibitor compounds for CypA can also be assessed by FP competition with fluorescein tagged cyclosporine A by varying RAS(ON) multi-selective inhibitor compound concentrations. The signals can be fitted using a concentration response curve and the KD1 is calculated.
In some embodiments, the KD1 value of a RAS(ON) multi-selective inhibitor for CypA can be determined using ITC, a label-free biophysical technique that directly measures the heat released or absorbed during molecular interactions. […] As the inhibitor binds to CypA, the heat of binding is measured after each injection. […]

KRAS WT [4] = biological target: T1, KRAS WT; assay: KRAS Binding of CypA:TCI (KD2), KRAS WT
[5] = test system: KRAS MUT (G12C, G12D, G12V); assay: Cellular pERK (2D, 4 hr), KRAS MUT; format: cell-based
RAS WT [6] = assay: Cellular pERK (2D, 4 hr), RAS WT; format: cell-based
[7] = test system: KRAS MUT (G12C, G12D, G12V); assay: 2D Cell Viability, 120 hr, KRAS MUT; format: cell-based
BRAF (V600E) = assay: 2D Cell Viability, 120 hr, BRAF (V600E); format: cell-based
RAS WT [8] = assay: 3D Cell Viability, 120 hr, RAS WT; format: cell-based
[9] = Oral bioavailability (multiple species); details: in vivo, read-out: Oral % F (multiple species)
[10] = test system: NCI-H441 KRAS^G12V NSCLC xenograft model; assay: NCI-H441 xenograft efficacy and tolerability; format: in vivo
Experimental: (§1) All mouse studies and procedures related to animal handling, care and treatment complied with all applicable regulations and guidelines of Institutional Animal Care and Use Committee (IACUC) approvals. Female BALB/c nude mice, 6-8 weeks old were used. Animal vendor was Shanghai Sino-British Sippr/BK Laboratory Animal Co., LTD. NCI-H441 tumor cells (ATCC-HTB-174) was maintained in vitro in RPMI-1640 medium supplemented with 10% heat inactivated FBS, 100 μg/mL streptomycin. Each mouse was inoculated subcutaneously at the right flank with 2×10^6 tumor cells in 0.2 ml media/matrigel for tumor development. Efficacy treatment started when the average tumor size reached 150-200 mm^3 in size, and the single dosed PKPD treatment started when tumor size reached 300-600 mm^3. Mice in the study were weighted and tumors were measured twice weekly.
NCI-H441 is a human lung tumor derived cell line. It harbors a KRAS^G12V mutation. It is typically grown in immune-deficient mice as a xenograft model. An NCI-H441 xenograft study was conducted in female BALB/C Nude mice. Each mouse was inoculated subcutaneously on the right flank with the single cell suspension of tumor cells (2×10^6) in 200 uL with BD Matrigel (1:1 ratio) for tumor development. Tumor width and length were measured with digital calipers, and the tumor volume in mm3 was calculated using the formula: Volume=((width)2×length)/2, where width and length are measured in mm.
Tumor growth inhibition (TGI, %) was calculated as percentage change in tumor volume for each group 100×(Vdayxc−Vdayx)/(Vdayxc−Vdayoc), where Vday0c is the starting mean tumor volume for the vehicle group, and Vdayx and Vdayxc are the corresponding tumor volumes for treatment group and control group on day x, calculated for the duration of the study. Mean tumor regression (where applicable, Vdayx<Vday0x) was calculated using the formula 100×(Vday0x−Vdayx)/Vday0x.
Differences in treatment arms as compared to vehicle controls were assessed by an ordinary one-way ANOVA of tumor volumes along with multiple comparisons via a post-hoc Tukey's test in GraphPad Prism software. Note, in some studies, additional test articles/groups (not reported here) were included and statistical analyses (ANOVA, post-hoc within group comparisons) were conducted on all treatment groups to allow for any interactions. The statistical significance values reported here represent the output of such analyses for RMC-6236 treatment arm.

[11] = test system: human DUSP6 in NCI-H441 xenograft tumor; assay: NCI-H441 xenograft single dose PKPD (exposure, human DUSP6); format: in vivo, mouse; details: single oral dose, NCI-H441 xenograft tumor (FIG. 2)
Experimental: as §1

KRAS MUT (G12D, G12V) = assay: KRAS Binding of CypA:TCI (KD2), KRAS MUT
[12] = test system: Capan-2, KRAS^G12V PDAC CDX model; assay: Capan-2 xenograft efficacy and tolerability; format: in vivo, mouse
Experimental: Capan-2 is a human pancreatic adenocarcinoma derived cell line. It harbors a KRAS^G12V mutation. It is typically grown in immune-deficient mice as a xenograft model. A Capan-2 xenograft study was conducted in female BALB/C Nude mice. Each mouse was inoculated subcutaneously on the right flank with the single cell suspension of tumor cells (4×10^6) in 100 uL RPMI 1640/Matrigel mixture (1:1 ratio) for tumor development. Tumor width and length were measured with digital calipers, and the tumor volume in mm3 was calculated using the formula: Volume=((width)2×length)/2, where width and length are measured in mm. Tumor growth inhibition (TGI, %) was calculated as percentage change in tumor volume for each group 100×(Vdayxc−Vdayx)/(Vdayxc−Vday0c), where Vday0c is the starting mean tumor volume for the vehicle group, and Vdayx and Vdayxc are the corresponding tumor volumes for treatment group and control group on day x, calculated for the duration of the study. Mean tumor regression (where applicable, Vdayx<Vday0x) was calculated using the formula 100×(Vday0x−Vdayx)/Vday0x.

[13] = Half-life after oral administration to patients; details: human, in vivo
RAS mutant NSCLC or PDAC = assay: Phase I study of RMC-6236 (NCT05379985); format: in vivo, human
[14] = Tolerability by dosing schedule in preclinical models
[15] = 25 mg/kg daily, 50 mg/kg daily, 50 mg/kg Q2D and 100 mg/kg Q2D (FIG. 3)
[16] = patients with RAS mutant NSCLC or PDAC

T1 sequence (P01116 1-188 isoform P01116-2): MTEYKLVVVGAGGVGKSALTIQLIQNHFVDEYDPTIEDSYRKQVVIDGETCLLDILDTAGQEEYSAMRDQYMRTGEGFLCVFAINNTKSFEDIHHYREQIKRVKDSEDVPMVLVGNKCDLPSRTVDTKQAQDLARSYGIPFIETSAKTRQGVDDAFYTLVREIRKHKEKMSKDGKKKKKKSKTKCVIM
T1 sequence (P62937 whole entry): as the sequence (P62937 whole entry) above

Compound	IC50 [1] [nM]	IC50 (KRAS WT [2]) [nM]	IC50 [3] [nM]	IC50 (NRAS WT) [nM]	Kd (CypA) [nM]	Kd (KRAS WT [4]) [nM]	IC50 [5] [nM]	IC50 (RAS WT [6]) [nM]	IC50 [7] [nM]	IC50 (BRAF (V600E)) [nM]	IC50 (RAS WT [8]) [nM]	bioavailability [9] [%]	time of maximum DUSP6 suppression post single dose [11] [h]	Kd (KRAS MUT (G12D, G12V)) [nM]	also measured
CCn1c(-c2cc(N3CCN(C)CC3)cnc2[C@H](C)OC)c2c3cc(ccc31)-c1csc(n1)C[C@H](NC(=O)[C@H](C(C)C)N(C)C(=O)N(C)C)C(=O)N1CCC[C@H](N1)C(=O)OCC(C)(C)C2 (atropisomer, axis not shown) [Compound A]	23 to 165	42	18 to 109	33	12	81	0.3 to 1	0.4	0.2 to 1.2	1880	0.4	20 to 38	24		tolerability (dosing holidays) [10, 15]: all treatment groups require some dosing holidays towards the end; tumor regression [10, 15]: the same tumor regression
CCn1c(-c2cc(N3CCN(C)CC3)cnc2[C@H](C)OC)c2c3cc(ccc31)-c1csc(n1)C[C@H](NC(=O)[C@H]1C[C@@H]1C)C(=O)N1CCC[C@H](N1)C(=O)OCC(C)(C)C2 (atropisomer, axis not shown) [RMC-6236, daraxonrasib]	35 to 229		57 to 204				0.4 to 3.6	1.5	1 to 3.1	7210	1.4	24 to 33	8	131 to 364	decrease in tumor volume ([10]; 25 mg/kg (Q2D) (FIG. 1)): lower decreases in tumor volume; tumor regression ([10]; 25 mg/kg QD, NCI-H441 model (FIG. 6)): 88%; tumor regression ([10]; 100 mg/kg Q2D, NCI-H441 model (FIG. 6)): 89%; tumor regression ([10]; 100 mpk with increased interval of dosing, NCI-H441 model (FIG. 6)): 68%; tolerability, body weight ([10]; all doses and regimens of FIG. 6): without any significant body weight loss; tolerability ([10]; all regimens of FIG. 4 and FIG. 5): tolerated in vivo; tumor regression ([12]; 25 mg/kg QD, Capan-2 (FIG. 7)): 53%; tumor regression ([12]; 35 mg/kg 5on2off, Capan-2 (FIG. 7)): 28%; tumor regression ([12]; 40 mg/kg 4on3off, Capan-2 (FIG. 7)): 27%; tumor regression ([12]; 50 mg/kg Q2D, Capan-2 (FIG. 7)): 51%; tolerability, body weight ([12]; all tested doses and regimens, Capan-2 (FIG. 7)): without any significant body weight loss; tumor growth inhibition ([12]; all tested doses and regimens, oral administration (FIG. 7)): Tumor growth inhibition was observed; half-life [13]: ~10 h; most common treatment-related adverse events (TRAEs) (RAS mutant NSCLC or PDAC): rash and GI-related toxicities; antitumor activity (RAS mutant NSCLC or PDAC; [16]): encouraging antitumor activity; safety profile (RAS mutant NSCLC or PDAC; [16]): acceptable safety profile; body weight loss and tolerability ([14]; BID dosing): more severe body weight loss and intolerability; tolerated dose level ([14]; Q2D dosing): allows higher dose levels to be tolerated; body weight loss ([14]; Q2D dosing at an equivalent dose of QD dosing): slightly improves the body weight loss
CCn1c(-c2cc(N3CCN(C4CC4)CC3)cnc2[C@H](C)OC)c2c3cc(ccc31)-c1csc(n1)C[C@H](CC(=O)[C@H]1[C@@H]3COC[C@@H]31)C(=O)N1CCC[C@H](N1)C(=O)OCC(C)(C)C2 (atropisomer, axis not shown) [RMC-7977]	31 to 175	76	48 to 144	57	216	116	0.5 to 4.1	1.7	0.8 to 4.9	8360	1.9	60	8	111 to 435	
